The record followed here is patent publication US10696677B2 (Research Triangle Institute, priority 2016, dated 2020).

Read-outs that look alike come from different tables or passages of the source.

Series [1] deals with T1, hCB1 (Homo sapiens, UniProt P21554). Briefly: functional fluorescent CB1 activated Gαq16-coupled intracellular calcium mobilization assay in CHO-K1 cells. The series is classed as cell-based. Details: expressed in transfected cells; host or cells: CHO-K1 (membranes). The conditions noted are these: average of 3-6 measurements, read-out: Apparent antagonist dissociation constant (Ke) at hCB1. On the technique in general: Calcium assays in cells follow changes in intracellular calcium, usually with a dye or a luminescent sensor.
T1 sequence (P21554 whole entry): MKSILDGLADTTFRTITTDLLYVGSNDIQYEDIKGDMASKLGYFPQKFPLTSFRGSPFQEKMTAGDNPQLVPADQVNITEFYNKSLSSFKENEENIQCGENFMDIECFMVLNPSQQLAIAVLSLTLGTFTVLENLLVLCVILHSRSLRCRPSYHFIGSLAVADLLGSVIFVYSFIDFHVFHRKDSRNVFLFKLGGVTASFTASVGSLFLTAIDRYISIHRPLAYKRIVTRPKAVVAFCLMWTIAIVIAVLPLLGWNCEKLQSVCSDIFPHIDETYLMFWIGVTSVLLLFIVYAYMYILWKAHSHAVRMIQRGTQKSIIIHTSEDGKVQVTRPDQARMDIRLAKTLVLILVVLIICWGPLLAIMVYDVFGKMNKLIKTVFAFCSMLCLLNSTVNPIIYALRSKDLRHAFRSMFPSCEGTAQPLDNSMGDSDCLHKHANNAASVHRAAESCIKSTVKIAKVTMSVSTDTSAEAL

The test system of series [2] is MDCK. As to the kind of experiment: MDCK BBB Assay. It is filed as in vitro ADME. The conditions noted are these: MDCK BBB assay.
Series [3] deals with hCB2 (Homo sapiens, UniProt P34972). As to the kind of experiment: radioligand displacement binding at CB2 ([3H]CP55940, membranes of CHO-K1 cells over-expressing receptor). (In general: Loss of bound radioactivity is the signal in a displacement assay; it reports binding, not function.)
Chain of hCB2 (P34972 whole entry): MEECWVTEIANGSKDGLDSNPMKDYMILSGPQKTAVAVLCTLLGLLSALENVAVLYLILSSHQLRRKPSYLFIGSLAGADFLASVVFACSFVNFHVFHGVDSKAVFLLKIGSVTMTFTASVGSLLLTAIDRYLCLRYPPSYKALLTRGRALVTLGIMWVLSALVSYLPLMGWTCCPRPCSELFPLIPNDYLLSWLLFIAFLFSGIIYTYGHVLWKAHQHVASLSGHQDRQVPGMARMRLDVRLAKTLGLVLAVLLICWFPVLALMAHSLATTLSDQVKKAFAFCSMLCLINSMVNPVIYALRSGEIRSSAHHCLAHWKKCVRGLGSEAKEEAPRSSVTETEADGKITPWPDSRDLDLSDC
Method: (§1) All compounds were characterized by H^1 NMR and evaluated using a calcium mobilization assay. […] Further characterization of select compounds was performed using radioligand displacement of [3H]1 and equilibrium dissociation constant (Ki) values were determined.
In series [4] the target is T1, hCB1. Briefly: radioligand displacement binding at CB1 (membranes of CHO-K1 cells over-expressing receptor).
Method: as §1
Where [5] appears, read: read-out: Binding affinity (Ki) at hCB2, displacement of [3H]CP55940, CHO-K1 membranes, average of 3-6 measurements.
Where [6] appears, read: read-out: Binding affinity (Ki) at hCB1, radioligand displacement, CHO-K1 membranes, average of 3-6 measurements.

For `N=C(Nc1ccc(F)cc1)NC1CCN(c2ncnc3c2nc(-c2ccccc2Cl)n3-c2ccc(Cl)cc2)CC1` [Compound 27, 1-{1-[8-(2-chlorophenyl)-9-(4-chlorophenyl)-9H-purin-6-yl]piperidin-4-yl}-3-(4-fluorophenyl)guanidine], in series [1], the Kb came out at 600 nM.

In the case of `Clc1ccc(-n2c(-c3ccccc3Cl)nc3c(N4CCC(Nc5ccncc5)CC4)ncnc32)cc1` [Compound 36, N-{1-[8-(2-chlorophenyl)-9-(4-chlorophenyl)-9H-purin-6-yl]piperidin-4-yl}pyridin-4-amine], the Kb in series [1] worked out at 100 nM.

As for `Clc1ccc(-n2c(-c3ccccc3Cl)nc3c(N4CCC(NCc5ccccc5)CC4)ncnc32)cc1` [Compound 37, N-benzyl-1-[8-(2-chlorophenyl)-9-(4-chlorophenyl)-9H-purin-6-yl]piperidin-4-amine], the Kb in series [1] was determined as 59 nM.

On to `Clc1ccc(-n2c(-c3ccccc3Cl)nc3c(N4CCC(NCc5ccncc5)CC4)ncnc32)cc1` [Compound 38, 1-[8-(2-chlorophenyl)-9-(4-chlorophenyl)-9H-purin-6-yl]-N-(pyridin-4-ylmethyl)piperidin-4-amine], for which, in series [1], the Kb was 360 nM.

For the compound `Fc1ccc(CNC2CCN(c3ncnc4c3nc(-c3ccccc3Cl)n4-c3ccc(Cl)cc3)CC2)cc1` [Compound 40, 1-[8-(2-chlorophenyl)-9-(4-chlorophenyl)-9H-purin-6-yl]-N-(4-fluorobenzyl)piperidin-4-amine], the Kb in series [1] is 82 nM.

As to `CN(Cc1ccc(F)cc1)C1CCN(c2ncnc3c2nc(-c2ccccc2Cl)n3-c2ccc(Cl)cc2)CC1` [Compound 41, 1-[8-(2-chlorophenyl)-9-(4-chlorophenyl)-9H-purin-6-yl]-N-(4-fluorobenzyl)-N-methylpiperidin-4-amine], in series [1], the Kb came out at 185 nM.

As usually defined, the melting point is the temperature of the solid-liquid transition. By Ki is commonly meant the equilibrium dissociation constant of an inhibitor or competing ligand from its target. `O=C(Nc1ccc(F)c(F)c1)N1CCN(c2ncnc3c2nc(-c2ccccc2Cl)n3-c2ccc(Cl)cc2)CC1` [Compound 42, 4-[8-(2-Chlorophenyl)-9-(4-chlorophenyl)-9H-purin-6-yl]-N-(3,4-difluorophenyl)piperazine-1-carboxamide] came in with a melting point of 205 to 207 °C. For the same compound, the “% Permeable” value in series [2] amounted to 0%. In series [3] (setting [5]), the Ki came to 4200 nM.

Consider `O=C(Nc1ccc(F)cc1)N1CCN(c2ncnc3c2nc(-c2ccccc2Cl)n3-c2ccc(Cl)cc2)CC1` [Compound 43, 4-[8-(2-Chlorophenyl)-9-(4-chlorophenyl)-9H-purin-6-yl]-N-(4-fluorophenyl)piperazine-1-carboxamide], for which the melting point is 234 to 235 °C. The Ki in series [4] (setting [6]) was found to be 19 nM. The Ki in series [3] (setting [5]) was found to be 2000 nM.

Regarding `Clc1ccc(-n2c(-c3sccc3Cl)nc3c(N4CCN(Cc5ccccc5Cl)CC4)ncnc32)cc1` [Compound 52, 6-[4-(2-chlorobenzyl)piperazin-1-yl]-9-(4-chlorophenyl)-8-(3-chlorothiophen-2-yl)-9H-purine], in series [1], the Kb was 220 nM.

As to `Cc1noc(C)c1-c1nc2c(N3CCN(Cc4ccccc4Cl)CC3)ncnc2n1-c1ccc(Cl)cc1` [Compound 53, 6-[4-(2-chlorobenzyl)piperazin-1-yl]-9-(4-chlorophenyl)-8-(3,5-dimethylisoxazol-4-yl)-9H-purine], the Kb in series [1] stood at 110 nM.

`O=C(Nc1ccccc1F)N1CCN(c2ncnc3c2nc(-c2ccccc2Cl)n3-c2ccc(Cl)cc2)CC1` [Compound 56, 4-[8-(2-Chlorophenyl)-9-(4-chlorophenyl)-9H-purin-6-yl]-N-(2-fluorophenyl)piperazine-1-carboxamide] gave a melting point of 214 to 215 °C. The Ki in series [4] (setting [6]) amounted to 6 nM. The Ki in series [3] (setting [5]) was 1300 nM.

`O=C(Nc1ccc(F)cc1F)N1CCN(c2ncnc3c2nc(-c2ccccc2Cl)n3-c2ccc(Cl)cc2)CC1` [Compound 57, 4-[8-(2-Chlorophenyl)-9-(4-chlorophenyl)-9H-purin-6-yl]-N-(2,4-difluorophenyl)piperazine-1-carboxamide] registered a melting point of 220 to 221 °C. In addition, the Ki in series [4] was found to be 9 nM. Moreover, the Ki in series [3] (setting [5]) worked out at 3200 nM.

As for `O=C(C1COc2ccccc2O1)N1CCN(c2ncnc3c2nc(-c2ccccc2Cl)n3-c2ccc(Cl)cc2)CC1` (stereo not drawn) [Compound 61, 8-(2-Chlorophenyl)-9-(4-chlorophenyl)-6-[4-(2,3-dihydro-1,4-benzodioxin-2-ylcarbonyl)piperazin-1-yl]-9H-purine], the “% Permeable” value in series [2] amounted to 0%. Besides, the Ki in series [4] was determined as 5.3 nM; in series [3] (setting [5]), 606 nM.

`CCS(=O)(=O)N1CCN(c2ncnc3c2nc(-c2ccccc2Cl)n3-c2ccc(Cl)cc2)CC1` [Compound 78, 8-(2-Chlorophenyl)-9-(4-chlorophenyl)-6-[4-(ethylsulfonyl)piperazin-1-yl]-9H-purine]: the “% Permeable” value in series [2] came to 18%. The Ki in series [4] worked out at 2.7 nM; in series [3] (setting [5]), 980 nM.

Take `CCCS(=O)(=O)N1CCN(c2ncnc3c2nc(-c2ccccc2Cl)n3-c2ccc(Cl)cc2)CC1` [Compound 79, 8-(2-Chlorophenyl)-9-(4-chlorophenyl)-6-[4-(propylsulfonyl)piperazin-1-yl]-9H-purine]: in series [2], the “% Permeable” value is 6%. For the same compound, the inhibitory constant (Ki) in series [4] (setting [6]) worked out at 1.2 nM; in series [3] (setting [5]) it was 848 nM.

For the compound `O=S(=O)(C1CC1)N1CCN(c2ncnc3c2nc(-c2ccccc2Cl)n3-c2ccc(Cl)cc2)CC1` [Compound 84, 8-(2-Chlorophenyl)-9-(4-chlorophenyl)-6-[4-(cyclopropylsulfonyl)piperazin-1-yl]-9H-purine], in series [2], the “% Permeable” value is listed as 4%. Further, the Ki in series [4] was found to be 5.3 nM; in series [3] (setting [5]), 2300 nM.

On to `CS(=O)(=O)N1CCN(c2ncnc3c2nc(-c2ccccc2Cl)n3-c2ccc(Cl)cc2)CC1` [Compound 86, 8-(2-Chlorophenyl)-9-(4-chlorophenyl)-6-[4-(methylsulfonyl)piperazin-1-yl]-9H-purine], for which the “% Permeable” value in series [2] is on record as 14%. For the same compound, the Ki in series [4] came to 24.4 nM; in series [3] it was 1650 nM.

Regarding `O=C(N1CCN(c2ncnc3c2nc(-c2ccccc2Cl)n3-c2ccc(Cl)cc2)CC1)C(F)(F)F` [Compound 87, 8-(2-Chlorophenyl)-9-(4-chlorophenyl)-6-[4-(trifluoroacetyl)piperazin-1-yl]-9H-purine], in series [2], the “% Permeable” value is reported as about 100%. The results for the Ki in series [4] (setting [6]) and in series [3] were 1 nM and 134 nM, respectively.

Turning to `CCCCC(=O)N1CCN(c2ncnc3c2nc(-c2ccccc2Cl)n3-c2ccc(Cl)cc2)CC1` [Compound 103, 8-(2-Chlorophenyl)-9-(4-chlorophenyl)-6-(4-pentanoylpiperazin-1-yl)-9H-purine], the “% Permeable” value in series [2] is on record as 0%. Also, the Ki amounted to 5.5 nM in series [4] and 403 nM in series [3] (setting [5]).

As for `FC(F)(F)Oc1ccccc1CN1CCN(c2ncnc3c2nc(-c2ccccc2Cl)n3-c2ccc(Cl)cc2)CC1` [Compound 112, 8-(2-Chlorophenyl)-9-(4-chlorophenyl)-6-{4-[2-(trifluoromethoxy)benzyl]piperazin-1-yl}-9H-purine], the melting point lay within 110 to 111 °C. Moreover, the Ki in series [3] is 76000 nM.

`O=C(NC1CCCC1)N1CCN(c2ncnc3c2nc(-c2ccccc2Cl)n3-c2ccc(Cl)cc2)CC1` [Compound 117, 4-[8-(2-Chlorophenyl)-9-(4-chlorophenyl)-9H-purin-6-yl]-N-cyclopentylpiperazine-1-carboxamide]: the melting point fell in the range of 248 to 250 °C. The “% Permeable” value in series [2] is reported as 3%. Further, the Ki in series [4] (setting [6]) stood at 5 nM. Besides, in series [3] (setting [5]), the Ki worked out at 740 nM.

`O=C(NC1(C(F)(F)F)CCCC1)N1CCN(c2ncnc3c2nc(-c2ccccc2Cl)n3-c2ccc(Cl)cc2)CC1` [Compound 118, 4-[8-(2-Chlorophenyl)-9-(4-chlorophenyl)-9H-purin-6-yl]-N-[1-(trifluoromethyl)cyclopentyl]piperazine-1-carboxamide] returned a melting point of 202 to 204 °C. Also, the Ki in series [4] (setting [6]) was found to be 24 nM. Besides, in series [3] (setting [5]), the Ki is 1300 nM.

`O=C(NC1CCCCC1)N1CCN(c2ncnc3c2nc(-c2ccccc2Cl)n3-c2ccc(Cl)cc2)CC1` [Compound 119, 4-[8-(2-chlorophenyl)-9-(4-chlorophenyl)-9H-purin-6-yl]-N-cyclohexylpiperazine-1-carboxamide] came in with a melting point of 228 to 229 °C. Also, the Ki in series [4] (setting [6]) is 1.4 nM. In series [3] (setting [5]), the Ki amounted to 620 nM.

With `O=C(NCC1CCCCC1)N1CCN(c2ncnc3c2nc(-c2ccccc2Cl)n3-c2ccc(Cl)cc2)CC1` [Compound 120, 4-[8-(2-chlorophenyl)-9-(4-chlorophenyl)-9H-purin-6-yl]-N-(cyclohexylmethyl)piperazine-1-carboxamide], the melting point lay in the range of 105 to 107 °C. In addition, the Ki in series [4] (setting [6]) turned out to be 43 nM. Moreover, the Ki in series [3] (setting [5]) came out at 740 nM.

Turning to `O=C(Nc1ccccc1)N1CCN(c2ncnc3c2nc(-c2ccccc2Cl)n3-c2ccc(Cl)cc2)CC1` [Compound 121, 4-[8-(2-chlorophenyl)-9-(4-chlorophenyl)-9H-purin-6-yl]-N-phenylpiperazine-1-carboxamide], the melting point lay in the range of 121 to 123 °C. Moreover, the Ki in series [4] (setting [6]) is 6 nM. For the same compound, in series [3] (setting [5]), the Ki stood at 2400 nM.

Take `O=C(Nc1ccccn1)N1CCN(c2ncnc3c2nc(-c2ccccc2Cl)n3-c2ccc(Cl)cc2)CC1` [Compound 122, 4-[8-(2-Chlorophenyl)-9-(4-chlorophenyl)-9H-purin-6-yl]-N-(pyridin-2-yl)piperazine-1-carboxamide]: the melting point fell in the range of 120 to 122 °C. In addition, the “% Permeable” value in series [2] is reported as 1%. The Ki in series [4] (setting [6]) was determined as 6 nM. Besides, the Ki in series [3] (setting [5]) is 7100 nM.
